Here are results for 10 compounds from PMC8653689, “Phenanthrotriazine Derivatives Containing Arylidine Hydrazone Moieties as Novel Potential c-Met Inhibitors with Anticancer Effect” (Iranian Journal of Pharmaceutical Research : IJPR, 2021).

Like-named read-outs stand apart in the source and are kept apart here.

Data set [1] has as its system DU145 prostate cancer cells. Details: method as in PMID 28431881. The following applies: ref [30]; read-out: Antiproliferative activity against DU145 prostate cancer cells IC50; cited from earlier work.
In the next data set the test system is A498 renal cancer cells. Details: method as in PMID 30721822, PMID 28431881. The following applies: at 10 μM; ref [4], [30]; cited from earlier work.
In data set [2] the test system is MGC-803 gastric cancer cells. Details: method as in PMID 28763643, PMID 24393539. The following applies: ref [13], [31]; read-out: Antiproliferative activity against MGC-803 gastric cancer cells IC50; cited from earlier work.
The next data set concerns MCF7 breast cancer cells. More on the design: method as in PMID 28763643, PMID 24393539. The following applies: ref [13], [31]; read-out: Cytotoxic effect against MCF7 breast cancer cells IC50; cited from earlier work.
The subject of data set [3] is MDA-MB435s melanoma cells. More on the design: method as in PMID 25470024. The following applies: ref [32], [33]; read-out: Cytotoxic effect against MDA-MB435s melanoma cells IC50; cited from earlier work.
Data set [4] concerns MDA-MB-231 breast cancer cells. Details: method as in PMID 25470024. The following applies: ref [32], [33]; read-out: Antiproliferative activity against MDA-MB-231 breast cancer cells IC50; cited from earlier work.
A short description of data set [5]: Solubility in aqueous media. It is filed as physicochemical.
For data set [6], the system named is Vero (African green monkey kidney) cells. Nature of the data set: MTT reduction assay, Vero normal cells. It is filed as cell-based. The settings on record: Chlorocebus sabaeus, Vero, 72 h, read-out: Vero IC50. An excerpt: (§1) Fetal bovine serum (FBS), phosphate-buffered saline (PBS), RPMI-1640, and trypsin were obtained from Biosera (Ringmer, UK). Penicillin/streptomycin and MTT (3-(4,5-dimethylthiazol-2-yl)-2,5-diphenyltetrazolium bromide) were from Sigma-Aldrich (Saint Louis, MO, USA) and Invitrogen (San Diego, CA, USA), respectively. Dimethyl sulfoxide and doxorubicin were purchased from Merck (Darmstadt, Germany) and EBEWE Pharma (Unterach, Austria), respectively. The cells were acquired from Iranian Biological Resource Center, Tehran, Iran (HT-29 (human colorectal adenocarcinoma), MCF-7 (human breast adenocarcinoma) and Vero (African green monkey kidney) cells) or National Cell Bank of Iran, Pasteur Institute, Tehran, Iran (MOLT-4 (lymphoblastic leukemia) cells).
(§2) MTT reduction assay was employed to assess the viability of cancer cells after being treated with synthesized derivatives as previously described ([34]). The cells were plated in flat-bottom 96-well microplates, at densities of 3 × 10^4 cells/mL (100 μL in each well) and then incubated overnight at 37 °C. Three to four different concentrations of synthesized derivatives (in the range of 1 to 100 μM) were placed in triplicate wells and the plates were incubated for 72 h at 37 °C. […] At the end of the incubation time, 80 μL of the media in each well was replaced with the same amount of growth medium without phenol red containing 0.5 mg/mL of MTT. Cells were further incubated at 37 °C for 4 h and then 80 μL of the solution of each well was removed. The addition of DMSO (200μL) to each well solubilized the formazan crystals formed inside the viable cells after 1-hour incubation followed by 30-minute shaking. The optical absorbance of the final solution was determined at 570 nm using a Bio-Tek multimode plate reader (Synergy HTX). The cell viability was calculated compared to untreated control cells by comparison of absorbance measurements. CurveExpert software (version 1.34 for Windows) was used to determine the IC50 value for each compound. To confirm the results, every experiment was repeated 3 to 5 times.
(In general: Tetrazolium dyes change colour on reduction, which living cells bring about.)

Data set [7] deals with MCF-7 cells. Nature of the data set: Cell cycle analysis, propidium iodide/RNase flow cytometric assay. The settings on record: 48 h; for Effect on number of cells in G0/G1: MCF-7, 10 and 25 µM. It is filed as cell-based, human. The method, then:
Alterations of the cell cycle were determined by the propidium iodide (PI)-RNase flow cytometric method ([35]). MCF-7 cells were used to determine the percentage of cells in each phase of the cell cycle. In 6-well plates, 2 × 10^5 cells were seeded in each well and incubated at 37 °C for 48 h. Afterward, they were treated for 48 h with derivatives 9g, 9j, 9k and 9l at 10 and 25 μM. The cells were then collected after trypsinization, washed twice with PBS, and fixed by 5 mL ethanol 70% for at least 24 h at -20 °C. After fixation, MCF-7 cells were washed with PBS two times and stained with PI 20 µg/mL and RNase 200 µg/mL for 30 min in the dark at room temperature. A FACS Calibur ﬂow cytometer (BD Biosciences) was used for the assays and 20,000 events were analyzed. The number of cells distributed in sub-G1, G0/G1, S, and G2/M were determined by CellQuest software (BD, USA).
Figure 2 Representative cell cycle histograms of MCF-7 cells treated with synthesized derivatives. Analysis of the percentage of cells in different phases of cell cycle was performed using propidium iodide (PI)-RNase flow cytometric assay. MCF-7 cells were seeded in 6-well microplates and treated with synthesized derivatives for 48 h. The cells were then collected and fixed in 70% ethanol overnight at -20 °C. In the end, the cells were stained with DNA staining solution (PI 20 µg/mL and RNase 200 µg/mL) for 30 min and 20,000 events were analyzed by a FACS Calibur ﬂow cytometer (BD Biosciences). Representative histograms of cells treated with compounds 9g, 9j, 9k and 9l are shown
On the technique in general: In flow cytometry, cells or beads pass a laser one at a time.

The test system of data set [8] is MCF-7 cells. The data set can be described thus: Hoechst 33258 staining, detection of apoptosis. It is filed as cell-based, human. The settings on record: MCF-7, 72 h treatment, especially at 25 µM. The procedure: Hoechst 33258 was used as a DNA stain to detect apoptosis in cells. MCF-7 cells were seeded in a 6-well plate at a density of 5 × 10^4 cells/mL (2 mL per well) and incubated for 24 h. The whole medium was removed and different concentrations of test compounds 9g, 9j, 9k, and 9l diluted in 2 mL medium were placed in the different wells and incubated for 72 h. Afterward, the medium was removed again, 1 mL of 4% cold freshly prepared paraformaldehyde (PFA) was added, and cells were incubated for 20 min at room temperature. The cells were then washed 2 times with 1 ml PBS and incubated with 1 mL Hoechst 33258 2.5 µg/mL for 30 min in the dark at room temperature ([36], [37]). In the end, the cells were washed with 1 mL PBS and imaged with a fluorescence microscope.
Figure 3 Detection of apoptosis in MCF-7 cells by Hoechst staining. Hoechst 33258 was used as a DNA stain to detect apoptosis in MCF-7 cells treated with synthesized compounds. The cells were seeded in a 6-well plates and treated with different concentrations of test compounds 9g, 9j, 9k and 9l for 72 h. After removing the whole medium, 4% cold freshly prepared paraformaldehyde (PFA) was added for 20 min at room temperature, the cells were then washed twice with PBS, and incubated with Hoechst 33258 2.5 µg/mL for 30 min at room temperature in the dark. Finally, the cells were washed with PBS again and the plates were imaged with a fluorescence microscope

In data set [9] the test system is HT-29 (human colorectal adenocarcinoma) cells. Nature of the data set: MTT reduction assay, antiproliferative effect, HT-29. It is filed as cell-based. The settings on record: Homo sapiens, HT-29, 72 h, read-out: HT-29 IC50.
From the text: as §1, §2

For data set [10], the system named is MCF-7 (human breast adenocarcinoma) cells. The data set can be described thus: MTT reduction assay, antiproliferative effect, MCF-7. It is filed as cell-based.
From the text: as §1, §2

The subject of data set [11] is MOLT-4 (lymphoblastic leukemia) cells. Nature of the data set: MTT reduction assay, antiproliferative effect, MOLT-4. The settings on record: Homo sapiens, MOLT-4, 72 h, read-out: MOLT-4 IC50. It is filed as cell-based, human.
From the text: as §1, §2

Setting [12] is: Homo sapiens, MCF7, 72 h, read-out: MCF-7 IC50, MTT, 72 h incubation.

`O=C1C(=O)c2ccccc2-c2ccccc21` [Compound 1]: in data set [1], the IC50 was 1.5 µM.

Take `O=C1NC(=O)/C(=C/c2ccc(-c3nc4c5ccccc5c5ccccc5c4[nH]3)cc2)S1` [Compound 2]: in the data set on A498 renal cancer cells, the “Growth inhibition in A498 renal cancer cells” value was 93%.

`Sc1nnc2c3ccccc3c3ccccc3c2n1` [Compound 3] had a melting point of 122 to 124 °C. Moreover, the IC50 in [2] was 7.6 µM.

On to `O=[N+]([O-])c1cccc(/C=N/Nc2nnc3c(n2)-c2cccc4cccc-3c24)c1` [Compound 4], for which the IC50 with MCF7 breast cancer cells is 61.9 µM.

Regarding `CSc1nnc2c3ccccc3c3ccccc3c2n1` [Compound 5], in [3], the IC50 is 120 µM.

On to `Cc1csc(N/N=C/c2ccccc2)n1` [Compound 6], for which, in data set [4], the IC50 was 3.9 µM.

In turn, `COc1ccc(C=NNc2nnc3c4ccccc4c4ccccc4c3n2)cc1` [Compound 9c, 3-(2-(4-methoxybenzylidene)hydrazinyl)phenanthro[9,10-e][1,2,4]triazine] displayed a melting point of 288 to 292 °C. In addition, the “Solubility in aqueous media” value in [5] is reported as “very low solubility in aqueous media”.

Regarding `Oc1ccccc1C=NNc1nnc2c3ccccc3c3ccccc3c2n1` [Compound 9d, 2-((2-(phenanthro[9,10-e][1,2,4]triazin-3-yl)hydrazono)methyl)phenol], the melting point was 328 to 332 °C. Also, the “Solubility in aqueous media” value in [5] is “very low solubility in aqueous media”.

`C(=NNc1nnc2c3ccccc3c3ccccc3c2n1)c1ccc[nH]1` [Compound 9k, 3-(2-((1H-pyrrol-2-yl)methylene)hydr-zinyl)phenanthro[9,10-e][1,2,4]triazine]: the melting point was in the range of 210 to 214 °C. For the same compound, the IC50 in data set [6] is 95.4 ± 12.4 µM. In the data set with MCF-7 cells [7] (MCF-7, 10 µM), the “Percentage of cells in G0/G1” value is on record as 77.30 ± 2.8, the “Percentage of cells in G2/M” value worked out at 16.63 ± 2.5, the “Percentage of cells in S” value is on record as 4.63 ± 0.7 and the “Percentage of cells in Sub G1” value stood at 1.31 ± 0.1. For the same compound, in the data set with MCF-7 cells [7] (MCF-7, 25 µM), the “Effect on cells in sub-G1 phase” value was “increased the cells in the sub-G1 phase”, the “Percentage of cells in G0/G1” value was found to be 77.42 ± 3.7, the “Percentage of cells in G2/M” value amounted to 16.13 ± 2.9 and the “Percentage of cells in S” value was found to be 4.68 ± 1.2. In addition, in the data set with MCF-7 cells [7] (MCF-7, 25 µM), the “Percentage of cells in Sub G1” value stood at 1.69 ± 0.4. Moreover, the “Effect on number of cells in G0/G1” value with MCF-7 cells [7] is “significantly enhanced the number of cells in the G0/G1”. The “Apoptosis induction by Hoechst 33258 staining” value in the data set on MCF-7 cells [8] is reported as “showed signs of apoptosis”. In addition, the IC50 in [9] came to 14.3 ± 2.8 µM. Besides, the IC50 in data set [10] (setting [12]) worked out at 4.5 ± 0.16 µM. In addition, the IC50 in data set [10] (read-out: MCF-7 IC50, MTT, 72 h incubation) is 4.7 ± 0.3 µM. In addition, in [11], the IC50 stood at 1.7 ± 0.2 µM.

`C(=NNc1nnc2c3ccccc3c3ccccc3c2n1)c1cccs1` [Compound 9l, 3-(2-(thiophene-2-ylmethylene)hydraz-inyl)phenanthro[9,10-e][1,2,4]triazine] displayed a melting point of 228 to 231 °C. For the same compound, the IC50 in data set [6] stood at 6.2 ± 3.1 µM. Further, in the data set on MCF-7 cells [7] (MCF-7, 10 µM), the “Percentage of cells in G0/G1” value came to 73.76 ± 0.6, the “Percentage of cells in G2/M” value came to 18.50 ± 1.7, the “Percentage of cells in S” value is on record as 6.28 ± 1.0 and the “Percentage of cells in Sub G1” value came to 1.32 ± 0.3. For the same compound, in the data set with MCF-7 cells [7] (MCF-7, 25 µM), the “Effect on cells in sub-G1 phase” value is on record as “increased the cells in the sub-G1 phase”, the “Percentage of cells in G0/G1” value amounted to 72.07 ± 0.9, the “Percentage of cells in G2/M” value is listed as 19.43 ± 0.8 and the “Percentage of cells in S” value came to 6.75 ± 0.9. Further, in the data set on MCF-7 cells [7] (MCF-7, 25 µM), the “Percentage of cells in Sub G1” value is given as 1.56 ± 0.3. In addition, the “Effect on number of cells in G0/G1” value in the data set on MCF-7 cells [7] is “significantly enhanced the number of cells in the G0/G1”. Also, in the data set with MCF-7 cells [8], the “Apoptosis induction by Hoechst 33258 staining” value is recorded as “showed signs of apoptosis”. The IC50 in data set [9] was determined as 12.9 ± 3.5 µM. Further, the IC50 in data set [10] (setting [12]) amounted to 6.9 ± 0.9 µM. The IC50 in data set [11] was determined as 6.8 ± 0.7 µM.

In general, IC50 refers to the midpoint of a concentration-inhibition curve. In general, melting point refers to the temperature, or range, at which the solid turns liquid.
